Columns and labels:
Type in all cases: functional
Conditions in all cases: read-out: GI
[1] = tested on: SW-620; assay: Growth inhibition of human SW-620 cells at 10 uM incubated for 48 hrs by sulforhodamine B assay relative to control
[2] = tested on: NCI/ADR-RES; assay: Growth inhibition of human NCI/ADR-RES cells at 10 uM incubated for 48 hrs by sulforhodamine B assay relative to control
[3] = tested on: BT-549; assay: Growth inhibition of human BT-549 cells at 10 uM incubated for 48 hrs by sulforhodamine B assay relative to control
[4] = tested on: KM12; assay: Growth inhibition of human KM12 cells at 10 uM incubated for 48 hrs by sulforhodamine B assay relative to control
[5] = tested on: K562; assay: Growth inhibition of human K562 cells at 10 uM incubated for 48 hrs by sulforhodamine B assay relative to control
[6] = tested on: TK-10; assay: Growth inhibition of human TK-10 cells at 10 uM incubated for 48 hrs by sulforhodamine B assay relative to control
[7] = tested on: HL-60(TB); assay: Growth inhibition of human HL-60(TB) cells at 10 uM incubated for 48 hrs by sulforhodamine B assay relative to control
[8] = tested on: M14; assay: Growth inhibition of human M14 cells at 10 uM incubated for 48 hrs by sulforhodamine B assay relative to control
[9] = tested on: ACHN; assay: Growth inhibition of human ACHN cells at 10 uM incubated for 48 hrs by sulforhodamine B assay relative to control
[10] = tested on: SNB-19; assay: Growth inhibition of human SNB-19 cells at 10 uM incubated for 48 hrs by sulforhodamine B assay relative to control
[11] = tested on: IGROV-1; assay: Growth inhibition of human IGROV-1 cells at 10 uM incubated for 48 hrs by sulforhodamine B assay relative to control
[12] = tested on: SN12C; assay: Growth inhibition of human SN12C cells at 10 uM incubated for 48 hrs by sulforhodamine B assay relative to control
[13] = tested on: UACC-62; assay: Growth inhibition of human UACC-62 cells at 10 uM incubated for 48 hrs by sulforhodamine B assay relative to control
[14] = tested on: OVCAR-5; assay: Growth inhibition of human OVCAR-5 cells at 10 uM incubated for 48 hrs by sulforhodamine B assay relative to control
[15] = tested on: NCI-H226; assay: Growth inhibition of human NCI-H226 cells at 10 uM incubated for 48 hrs by sulforhodamine B assay relative to control
[16] = tested on: T47D; assay: Growth inhibition of human T47D cells at 10 uM incubated for 48 hrs by sulforhodamine B assay relative to control
[17] = tested on: CCRF-CEM; assay: Growth inhibition of human CCRF-CEM cells at 10 uM incubated for 48 hrs by sulforhodamine B assay relative to control
[18] = tested on: RPMI-8226; assay: Growth inhibition of human RPMI-8226 cells at 10 uM incubated for 48 hrs by sulforhodamine B assay relative to control
[19] = tested on: UO-31; assay: Growth inhibition of human UO-31 cells at 10 uM incubated for 48 hrs by sulforhodamine B assay relative to control
[20] = tested on: PC-3; assay: Growth inhibition of human PC-3 cells at 10 uM incubated for 48 hrs by sulforhodamine B assay relative to control
[21] = tested on: RXF 393; assay: Growth inhibition of human RXF 393 cells at 10 uM incubated for 48 hrs by sulforhodamine B assay relative to control
[22] = tested on: SK-MEL-5; assay: Growth inhibition of human SK-MEL-5 cells at 10 uM incubated for 48 hrs by sulforhodamine B assay relative to control
[23] = tested on: NCI-H460; assay: Growth inhibition of human NCI-H460 cells at 10 uM incubated for 48 hrs by sulforhodamine B assay relative to control
[24] = tested on: HCT-116; assay: Growth inhibition of human HCT-116 cells at 10 uM incubated for 48 hrs by sulforhodamine B assay relative to control
[25] = tested on: HOP-62; assay: Growth inhibition of human HOP-62 cells at 10 uM incubated for 48 hrs by sulforhodamine B assay relative to control
[26] = tested on: CAKI-1; assay: Growth inhibition of human CAKI-1 cells at 10 uM incubated for 48 hrs by sulforhodamine B assay relative to control
[27] = tested on: NCI-H322M; assay: Growth inhibition of human NCI-H322M cells at 10 uM incubated for 48 hrs by sulforhodamine B assay relative to control
[28] = tested on: HCC 2998; assay: Growth inhibition of human HCC 2998 cells at 10 uM incubated for 48 hrs by sulforhodamine B assay relative to control
[29] = tested on: Malme-3M; assay: Growth inhibition of human Malme-3M cells at 10 uM incubated for 48 hrs by sulforhodamine B assay relative to control
[30] = tested on: SK-OV-3; assay: Growth inhibition of human SK-OV-3 cells at 10 uM incubated for 48 hrs by sulforhodamine B assay relative to control
[31] = tested on: HCT-15; assay: Growth inhibition of human HCT-15 cells at 10 uM incubated for 48 hrs by sulforhodamine B assay relative to control
[32] = tested on: MDA-MB-231; assay: Growth inhibition of human MDA-MB-231 cells at 10 uM incubated for 48 hrs by sulforhodamine B assay relative to control
[33] = tested on: U-251; assay: Growth inhibition of human U-251 cells at 10 uM incubated for 48 hrs by sulforhodamine B assay relative to control
[34] = tested on: MDA-MB-435; assay: Growth inhibition of human MDA-MB-435 cells at 10 uM incubated for 48 hrs by sulforhodamine B assay relative to control
[35] = tested on: MOLT-4; assay: Growth inhibition of human MOLT-4 cells at 10 uM incubated for 48 hrs by sulforhodamine B assay relative to control
[36] = tested on: A549; assay: Growth inhibition of human A549/ATCC cells at 10 uM incubated for 48 hrs by sulforhodamine B assay relative to control
[37] = tested on: SK-MEL-28; assay: Growth inhibition of human SK-MEL-28 cells at 10 uM incubated for 48 hrs by sulforhodamine B assay relative to control
[38] = tested on: HT-29; assay: Growth inhibition of human HT-29 cells at 10 uM incubated for 48 hrs by sulforhodamine B assay relative to control
[39] = tested on: MDA-MB-468; assay: Growth inhibition of human MDA-MB-468 cells at 10 uM incubated for 48 hrs by sulforhodamine B assay relative to control
[40] = tested on: NCI-H522; assay: Growth inhibition of human NCI-H522 cells at 10 uM incubated for 48 hrs by sulforhodamine B assay relative to control
[41] = tested on: HOP-92; assay: Growth inhibition of human HOP-92 cells at 10 uM incubated for 48 hrs by sulforhodamine B assay relative to control
[42] = tested on: DU-145; assay: Growth inhibition of human DU-145 cells at 10 uM incubated for 48 hrs by sulforhodamine B assay relative to control
[43] = tested on: SNB-75; assay: Growth inhibition of human SNB-75 cells at 10 uM incubated for 48 hrs by sulforhodamine B assay relative to control
[44] = tested on: OVCAR-8; assay: Growth inhibition of human OVCAR-8 cells at 10 uM incubated for 48 hrs by sulforhodamine B assay relative to control

## O=C(CNc1nnc(-c2ccc(Cl)cc2)o1)Nc1ccc(-c2nc3ccccc3s2)cc1
[1]
  inhibition of growth at 10 µM: -9.76%
[2]
  inhibition of growth at 10 µM: 1.07%
[3]
  inhibition of growth at 10 µM: 13%
[4]
  inhibition of growth at 10 µM: 2.99%
[5]
  inhibition of growth at 10 µM: 14.4%
[6]
  inhibition of growth at 10 µM: 8.25%
[7]
  inhibition of growth at 10 µM: 6.27%
[8]
  inhibition of growth at 10 µM: -1.85%
[9]
  inhibition of growth at 10 µM: -12%
[10]
  inhibition of growth at 10 µM: 9.4%
[11]
  inhibition of growth at 10 µM: 5.85%
[12]
  inhibition of growth at 10 µM: 5.48%
[13]
  inhibition of growth at 10 µM: 13.9%
[14]
  inhibition of growth at 10 µM: -16.4%
[15]
  inhibition of growth at 10 µM: 17.1%
[16]
  inhibition of growth at 10 µM: 20.1%
[17]
  inhibition of growth at 10 µM: 46.7%
[18]
  inhibition of growth at 10 µM: 4.61%
[19]
  inhibition of growth at 10 µM: 26.7%
[20]
  inhibition of growth at 10 µM: 11.4%
[21]
  inhibition of growth at 10 µM: -0.2%
[22]
  inhibition of growth at 10 µM: 7.93%
[23]
  inhibition of growth at 10 µM: 0.31%
[24]
  inhibition of growth at 10 µM: 10.2%
[25]
  inhibition of growth at 10 µM: -6.78%
[26]
  inhibition of growth at 10 µM: -0.31%
[27]
  inhibition of growth at 10 µM: 4.86%
[28]
  inhibition of growth at 10 µM: 6.46%
[29]
  inhibition of growth at 10 µM: 11.3%
[30]
  inhibition of growth at 10 µM: -16.6%
[31]
  inhibition of growth at 10 µM: 10.4%
[32]
  inhibition of growth at 10 µM: 1.2%
[33]
  inhibition of growth at 10 µM: 18.4%
[34]
  inhibition of growth at 10 µM: 2.95%
[35]
  inhibition of growth at 10 µM: 66.8%
[36]
  inhibition of growth at 10 µM: 4.18%
[37]
  inhibition of growth at 10 µM: -16.7%
[38]
  inhibition of growth at 10 µM: 4.3%
[39]
  inhibition of growth at 10 µM: 110%
[40]
  inhibition of growth at 10 µM: 22.9%
[41]
  inhibition of growth at 10 µM: 12.1%
[42]
  inhibition of growth at 10 µM: 1.53%
[43]
  inhibition of growth at 10 µM: 14.2%
[44]
  inhibition of growth at 10 µM: -2.95%

From ChEMBL document CHEMBL4765227, “Hit to lead optimization of a series of N-[4-(1,3-benzothiazol-2-yl)phenyl]acetamides as monoacylglycerol lipase inhibitors with potential anticancer activity” (Eur J Med Chem, 2016)
